# Results taken from patent US6083496A, “Polyamine transport inhibitors” (priority 1996, dated 2000).
# Like-named read-outs stand apart in the source and are kept apart here.
# What was measured:
# polyamine transporter [1] = test: Spermidine uptake ([3H]spermidine) in CHO-K1 cells; format: cell-based, Chinese hamster; settings: MESC thioether derivatives, FIG. 5
# polyamine transporter [2] = settings: ZR-75-1 cells; compound as its own substrate; read-out: Km, putrescine transport; cited from earlier work
# ZR-75-1 cells [3] = test: Reversal of DFMO-induced growth inhibition by exogenous spermidine; format: cell-based, human; settings: 11 days
# Procedure: Effect of Inhibitors on Cell Proliferation--For growth studies, ZR-75-1 cells were cultured in MEZR medium or in phenol red-free RPMI 1640 supplemented with 2 mM L-glutamine, 1 mM sodium pyruvate, 15 mM Hepes, antibiotics, 1 nM 17β-estradiol, 0.5 μg of bovine insulin per ml and 5% (v/v) charcoal-treated fetal bovine serum (SD medium), as indicated in the text. When polyamines or polyamine analogs were added to serum-containing media, 1 mM aminoguanidine was added to inhibit bovine serum amine oxidase (BSAO) activity (Morgan, D. M. L. 1989. in The Physiology of Polyamines (Bachrach, U., and Helmer, Y. M. eds) Vol. I, pp. 203-229, CRC Press, Boca Raton). The effect of the transport inhibitors on cell growth was measured by incubating ZR-75-1 cells for 11 days in medium supplemental with antagonist, polyamines and/or 1 mM DFMO as indicated, followed by colorimetric determination of DNA content with 3,5-diaminobenzaic acid (Simard, J., Dauvois, S., Haagensen, D. E., Levesque, C., Merand, Y. and Labrie, F. 1990. Endocrinology 126: 3223-3231). Medium was changed every other day in these experiments because of the slow reaction of the compound with an unknown component present in the IMEM and RPMI 1640 medium formulation.
# polyamine transporter [4] = settings: ZR-75-1 cells; compound as its own substrate; read-out: Km, spermidine transport; cited from earlier work
# ZR-75-1 cells [5] = settings: background; cited from earlier work
# ZR-75-1 cells [6] = test: Effect of inhibitors on cell proliferation (11 days, DNA content); format: cell-based, human; settings: 1 mM, 11 days
# Procedure: Effect of Inhibitors on Cell Proliferation--For growth studies, ZR-75-1 cells were cultured in MEZR medium or in phenol red-free RPMI 1640 supplemented with 2 mM L-glutamine, 1 mM sodium pyruvate, 15 mM Hepes, antibiotics, 1 nM 17β-estradiol, 0.5 μg of bovine insulin per ml and 5% (v/v) charcoal-treated fetal bovine serum (SD medium), as indicated in the text. […] M. L. 1989. in The Physiology of Polyamines (Bachrach, U., and Helmer, Y. M. eds) Vol. I, pp. 203-229, CRC Press, Boca Raton). […] Endocrinology 126: 3223-3231). Medium was changed every other day in these experiments because of the slow reaction of the compound with an unknown component present in the IMEM and RPMI 1640 medium formulation.
smiles,measurement,setting,value
NCCCNCCCC(NCCCN)C(=O)NCCSCC(=O)NCCN1C(=O)c2cc(S(=O)(=O)O)cc3c(N)c(S(=O)(=O)O)cc(c23)C1=O (centres unmarked) [MESC-LY],Ki toward spermidine uptake compared with MESC,polyamine transporter [1],did not signicantly (P>0.10) increase the Ki
NCCCNCCCC(NCCCN)C(=O)NCCSCC(N)=O (centres unmarked) [MESC-acetamide],Ki toward spermidine uptake compared with MESC,polyamine transporter [1],did not signicantly (P>0.10) increase the Ki
"NCCCCN [Putrescine, 1,4-butane-diamine]",Km,polyamine transporter [2],3.7 ± 0.4 µM
"NCCCCNCCCN [Spermidine, N-[3-aminopropyl]-1,4-diaminobutane]",Concentration completely reversing growth inhibition by 1 mM DFMO,ZR-75-1 cells [3],0.3 µM
same,Inhibition of cell proliferation,"ZR-75-1 cells [3]; concentrations superior to 0.3 μM, FIG. 8",up to 20%
same,Km,polyamine transporter [4],0.49 ± 0.15 µM
same,Concentration completely reversing DFMO-induced growth inhibition,ZR-75-1 cells [5],300 nM
"N=C(N)NN [aminoguanidine, reference compound]","Effect on cell growth, compound alone",ZR-75-1 cells [6],slight inhibitory effect
